The series is described as follows: Total and free plasma tiopronin and urinary tiopronin recovery in Beagle dogs after oral dosing by four regimens (Example 4). The series is classed as in vivo. Particulars: for % of the dose (unchanged drug) found in urine / maximum plasma concentrations of free tiopronin / maximum plasma concentrations of total tiopronin: average, n=3 dogs; for free (unbound) tiopronin in plasma over time: FIG. 12. The procedure: The objective of this study was to evaluate total and free plasma tiopronin, and total urinary tiopronin, in an animal model (male Beagle dogs) following oral administration of tiopronin, according to various dose regimens, to determine whether different regimens, simulating modified release, would improve drug pharmacokinetics. Specifically, tiopronin formulations were administered to deliver 30 mg/kg per dog via single or multiple doses divided over a 12-hour period; and blood and urine samples then collected at different times post-dose.
Tiopronin formulations were administered to provide 30 mg/kg per dog according to four different dosage regimes (Leg 1, Leg 2, Leg 3, and Leg 4), as set forth in the table below. Leg 2, Leg 3, and Leg 4 (also referred to as Q6H, Q3H, and Q2H respectively) were designed to simulate modified-release formulations, in accordance with certain embodiments of the present invention. Following administration, blood and urine samples were collected at the time points, or over the time intervals, also as indicated below.
Preparation of Dosing Formulations: Capsules for Legs 1-4 were prepared and filled on the day of dosing, as follows. For Legs 1 and 2, tiopronin was dry mixed with avicel and mannitol to make a 40:30:30 mixture of tiopronin to avicel to mannitol, respectively; for study Legs 3 and 4, a 20:40:40 mixture of tiopronin to avicel to mannitol, respectively, was prepared. The dry mixes were custom filled with the appropriate amount of powder to deliver the specified doses to each dog based, on their respective body weights.
Animal Dosing and Sample Collection: This non-clinical study followed established practices and standard operating procedures of Absorption Systems and Absorption Systems Inc., as well as the study protocol. Study groups each included three dogs. The dogs were housed one per cage. The dogs were fasted for at least six hours prior to each administration of the formulation. Food was given approximately ten hours post initial dosing. Animals had free access to water throughout the study.
Following dosing, blood and urine samples were collected according to the schedule in Table 1.
Blood samples were collected via direct venipuncture of the jugular vein or other accessible vein of the dog, and placed in chilled polypropylene tubes containing sodium heparin as an anticoagulant. Samples were maintained chilled throughout processing. Blood samples were centrifuged at 4° C. and 3,000 rpm (revolutions per minute) for 5 minutes. The first aliquot of plasma was precipitated with methanol by combining 200 μL of plasma with 600 μL of methanol in a centrifuge tube. The samples were mixed, centrifuged at 3,000 rpm for 5 minutes. The resulting supernatant was decanted into clean, labeled polypropylene tubes. The remaining plasma volume was transferred to a chilled, labeled polypropylene tube, placed on dry ice, and stored in a freezer maintained at −60° C. to −80° C. Following taking each blood sample, 15 mL of water was given to the dog via syringe.
For study Leg 1, pre-dose urine samples were collected via free catch approximately 2 hours pre-dose. For study Legs 2, 3 and 4, pre-dose urine samples were collected via catheter approximately 2 hours pre-dose. Other urine samples were collected via free catch in the cages during the indicated interval, collected into clean bottles, and kept on cold packs. Cold packs were replenished as needed during the day. At the end of each interval, the total volume of urine was collected and recorded. Each sample was well mixed and divided into two aliquots: an approximately 5 mL first aliquot, and a second aliquot of the remaining volume. Additionally, for Leg 4 only, each dog received a 60 mL subcutaneous injection of saline (2×30 mL injections at two different sites) approximately 30 minutes prior to dosing and, if urine was not present in the animal's cage at the end of the final collection interval, the final urine sample was collected by catheter. […]

Setting [1] is: Leg 1 (Q12H): PO single 30 mg/kg dose.
Setting [2] is: Leg 2 (Q6H): PO two 15 mg/kg doses at 0 and 6 h.
Where [3] appears, read: Leg 3 (Q3H): PO four 7.5 mg/kg doses at 0, 3, 6, 9 h.
Setting [4] is: Leg 4: PO six 5 mg/kg doses at 0, 2, 4, 6, 8, 10 h.

In the case of `CC(S)C(=O)NCC(=O)O` (stereo not drawn) [tiopronin, alpha-mercaptopropionylglycine], the “% of the dose (unchanged drug) found in urine” value was determined as 19.9±8.51% under setting [1], 37.5±14.5% under setting [2], 50.6±14.0% under setting [3] and 32.7±5.90% under setting [4]. Further, the “maximum plasma concentrations of free tiopronin” value under setting [1] is 11063 ± 3598 ng/mL, the “maximum plasma concentrations of free tiopronin” value under setting [2] was found to be 8177 ± 2237 ng/mL, the “maximum plasma concentrations of free tiopronin” value under setting [3] worked out at 3143 ± 624 ng/mL and the “maximum plasma concentrations of free tiopronin” value under setting [4] amounted to 2323 ± 589 ng/mL. Also, the “maximum plasma concentrations of total tiopronin” value is, setting by setting: under setting [1], 27900 ± 8122 ng/mL; (Leg 2 (Q6H): PO 30 mg/kg as two 15 mg/kg doses at 0 and 6 h) 23833 ± 5829 ng/mL; (Leg 3 (Q3H): PO 30 mg/kg as four 7.5 mg/kg doses at 0, 3, 6, 9 h) 10437 ± 1201 ng/mL; (Leg 4: PO 30 mg/kg as six 5 mg/kg doses at 0, 2, 4, 6, 8, 10 h) 10297 ± 2199 ng/mL. Also, the “time of maximum plasma concentrations of free tiopronin” value under setting [4] is 3 hours post dosing. In addition, the “free (unbound) tiopronin in plasma over time” value (Legs 1 and 2 (Q12H and Q6H)) is reported as “disappear from the plasma after a short period of time”; the “free (unbound) tiopronin in plasma over time” value (Legs 3 and 4 (Q3H and Q2H)) is reported as “maintained”. Further, the “urinary recovery of tiopronin, comparison of four dosing schedules” value (Q3H vs Q12H, Q6H, Q2H, FIG. 13) was “best tiopronin recovery in urine”.

Values taken from patent US12472160B2, “Modified-release tiopronin compositions, kits and methods for treating cystinuria and related disorders” (ALTIBIO, INC., priority 2017, dated 2025).
